{"source": "patent US10493091B2", "about": "“Method for storing P1, P4-bis(5′-uridyl)teraphosphate crystals” (Yamasa Corporation, priority 2015, dated 2019)", "key": {"[1]": {"assay": "pH measurement of UP4U crystals (crystal pH)", "assay_type": "physicochemical", "conditions": "1.0 g dissolved in 20 mL distilled water", "protocol": "The term crystal pH in the present invention refers to the value of pH of crystals measured with 1 g of crystals dissolved in 20 mL of water. The control of the pH of UP4U crystals within a desired range of values is possible, for example, by controlling the pH of an original solution for use in crystallization. To control the pH, it is sufficient to use, as necessary, an arbitrary acid or alkali capable of being used for production of raw materials or the like for pharmaceutical products. An arbitrary one selected from hydrochloric acid, nitric acid, phosphoric acid, and so on can be used as the acid and an arbitrary one selected from sodium hydroxide, sodium carbonate, sodium hydrogen carbonate, and so on can be used as the alkali.\nControl of UP4U Crystals with Different pHs UP4U crystals prepared by a known method were dissolved in deionized water. Various phosphoric acid aqueous solutions or sodium hydroxide aqueous solutions were each added to the solution containing UP4U dissolved therein to prepare solutions having different pHs (hereinafter, referred to as “original solutions”).\nEthanol was put into each of the original solutions to make the original solution lightly cloudy, followed by addition of a small amount of UP4U crystals and stirring for a dozen hours. After confirmation of crystal precipitation, ethanol was further put into each of the solutions, the solution was stirred, and crystals were then separated from the solution using a centrifuge. The obtained various crystals were dried with a circulation dryer to prepare various UP4U crystals having different pHs.\n(pH Measurement) Water was sufficiently boiled and then cooled in a state where a carbon dioxide absorption tube was connected, thus preparing distilled water. An amount of 1.0 g of each test sample was dissolved in 20 mL of the prepared distilled water. The pH (crystal pH) of this solution was measured."}, "[2]": {"assay": "Stability test of packed UP4U crystals, four weeks of storage, HPLC purity", "assay_type": "physicochemical", "conditions": "for decrease in HPLC purity: regardless of the crystal pH", "protocol": "(Packing of Test Sample) An amount of approximately 20 mg of each test sample was put into a pouch made of low-density polyethylene and sealed by heat sealing. This pouch was further put into a pouch made of low-density polyethylene and sealed by heat sealing. This pouch was still further put into a pouch made of low-density polyethylene and sealed by heat sealing. This pouch was put into a pouch made of aluminum-metallized film and sealed by heat sealing, thus preparing a sample for stability test. (Stability Test) Packed samples were put into thermostatic baths at 5° C., 25° C., 40° C., and 60° C., respectively, and stored for four weeks. (Analysis) For each sample zero days after the start of the stability test and samples of the same type at four weeks of storage at the different temperatures, the packing by sealing was opened and each of the test samples was dissolved in deionized water. This solution was analyzed by HPLC and, based on the analysis result, evaluated in terms of stability. The conditions of the measurement using HPLC in this analysis were as follows. [table] The evaluation was made by defining the value obtained by subtracting the HPLC purity (%) of crystals zero days after the start of the stability test from the HPLC purity (%) of the crystals at four weeks of storage as a rate of change (%)."}}}
{"smiles": "O=c1ccn([C@@H]2O[C@H](COP(=O)(O)OP(=O)(O)OP(=O)(O)OP(=O)(O)OC[C@H]3O[C@@H](n4ccc(=O)[nH]c4=O)[C@H](O)[C@@H]3O)[C@@H](O)[C@H]2O)c(=O)[nH]1", "note": "[UP4U crystals, P^1,P^4-bis(5′-uridyl)tetraphosphate]", "values": [{"measurement": "Crystal pH", "setting": "[1]; original liquid pH 2.50", "value": 4.60}, {"measurement": "Crystal pH", "setting": "[1]; original liquid pH 3.00", "value": 5.16}, {"measurement": "Crystal pH", "setting": "[1]; original liquid pH 3.50", "value": 5.54}, {"measurement": "Crystal pH", "setting": "[1]; original liquid pH 4.00", "value": 5.64}, {"measurement": "Crystal pH", "setting": "[1]; original liquid pH 5.50", "value": 5.97}, {"measurement": "Crystal pH", "setting": "[1]; original liquid pH 6.50", "value": 6.32}, {"measurement": "Crystal pH", "setting": "[1]; original liquid pH 7.40", "value": 6.66}, {"measurement": "Crystal pH", "setting": "[1]; original liquid pH 7.80", "value": 6.91}, {"measurement": "Crystal pH", "setting": "[1]; original liquid pH 8.00", "value": 7.12}, {"measurement": "Crystal pH", "setting": "[1]; original liquid pH 8.10", "value": 7.43}, {"measurement": "Crystal pH", "setting": "[1]; original liquid pH 8.20", "value": 7.97}, {"measurement": "rate of change in HPLC purity", "setting": "[2]; 5° C., four weeks of storage, crystal pH 4.60", "value": 0.01, "unit": "%"}, {"measurement": "rate of change in HPLC purity", "setting": "[2]; 5° C., four weeks of storage, crystal pH 5.16", "value": 0.00, "unit": "%"}, {"measurement": "rate of change in HPLC purity", "setting": "[2]; 5° C., four weeks of storage, crystal pH 5.54", "value": 0.00, "unit": "%"}, {"measurement": "rate of change in HPLC purity", "setting": "[2]; 5° C., four weeks of storage, crystal pH 5.64", "value": 0.00, "unit": "%"}, {"measurement": "rate of change in HPLC purity", "setting": "[2]; 5° C., four weeks of storage, crystal pH 5.97", "value": 0.00, "unit": "%"}, {"measurement": "rate of change in HPLC purity", "setting": "[2]; 5° C., four weeks of storage, crystal pH 6.32", "value": 0.00, "unit": "%"}, {"measurement": "rate of change in HPLC purity", "setting": "[2]; 5° C., four weeks of storage, crystal pH 6.66", "value": "−0.01", "unit": "%"}, {"measurement": "rate of change in HPLC purity", "setting": "[2]; 5° C., four weeks of storage, crystal pH 6.91", "value": 0.00, "unit": "%"}, {"measurement": "rate of change in HPLC purity", "setting": "[2]; 5° C., four weeks of storage, crystal pH 7.12", "value": 0.00, "unit": "%"}, {"measurement": "rate of change in HPLC purity", "setting": "[2]; 5° C., four weeks of storage, crystal pH 7.43", "value": 0.01, "unit": "%"}, {"measurement": "rate of change in HPLC purity", "setting": "[2]; 5° C., four weeks of storage, crystal pH 7.97", "value": 0.03, "unit": "%"}, {"measurement": "rate of change in HPLC purity", "setting": "[2]; 25° C., four weeks of storage, crystal pH 4.60", "value": "−0.01", "unit": "%"}, {"measurement": "rate of change in HPLC purity", "setting": "[2]; 25° C., four weeks of storage, crystal pH 5.16", "value": "−0.02", "unit": "%"}, {"measurement": "rate of change in HPLC purity", "setting": "[2]; 25° C., four weeks of storage, crystal pH 5.54", "value": "−0.02", "unit": "%"}, {"measurement": "rate of change in HPLC purity", "setting": "[2]; 25° C., four weeks of storage, crystal pH 5.64", "value": "−0.01", "unit": "%"}, {"measurement": "rate of change in HPLC purity", "setting": "[2]; 25° C., four weeks of storage, crystal pH 5.97", "value": "−0.02", "unit": "%"}, {"measurement": "rate of change in HPLC purity", "setting": "[2]; 25° C., four weeks of storage, crystal pH 6.32", "value": "−0.01", "unit": "%"}, {"measurement": "rate of change in HPLC purity", "setting": "[2]; 25° C., four weeks of storage, crystal pH 6.66", "value": "−0.03", "unit": "%"}, {"measurement": "rate of change in HPLC purity", "setting": "[2]; 25° C., four weeks of storage, crystal pH 6.91", "value": "−0.02", "unit": "%"}, {"measurement": "rate of change in HPLC purity", "setting": "[2]; 25° C., four weeks of storage, crystal pH 7.12", "value": "−0.02", "unit": "%"}, {"measurement": "rate of change in HPLC purity", "setting": "[2]; 25° C., four weeks of storage, crystal pH 7.43", "value": "−0.01", "unit": "%"}, {"measurement": "rate of change in HPLC purity", "setting": "[2]; 25° C., four weeks of storage, crystal pH 7.97", "value": "−0.01", "unit": "%"}, {"measurement": "rate of change in HPLC purity", "setting": "[2]; 40° C., four weeks of storage, crystal pH 4.60", "value": "−0.05", "unit": "%"}, {"measurement": "rate of change in HPLC purity", "setting": "[2]; 40° C., four weeks of storage, crystal pH 5.16", "value": "−0.04", "unit": "%"}, {"measurement": "rate of change in HPLC purity", "setting": "[2]; 40° C., four weeks of storage, crystal pH 5.54", "value": "−0.03", "unit": "%"}, {"measurement": "rate of change in HPLC purity", "setting": "[2]; 40° C., four weeks of storage, crystal pH 5.64", "value": "−0.02", "unit": "%"}, {"measurement": "rate of change in HPLC purity", "setting": "[2]; 40° C., four weeks of storage, crystal pH 5.97", "value": "−0.03", "unit": "%"}, {"measurement": "rate of change in HPLC purity", "setting": "[2]; 40° C., four weeks of storage, crystal pH 6.32", "value": "−0.02", "unit": "%"}, {"measurement": "rate of change in HPLC purity", "setting": "[2]; 40° C., four weeks of storage, crystal pH 6.66", "value": "−0.04", "unit": "%"}, {"measurement": "rate of change in HPLC purity", "setting": "[2]; 40° C., four weeks of storage, crystal pH 6.91", "value": "−0.04", "unit": "%"}, {"measurement": "rate of change in HPLC purity", "setting": "[2]; 40° C., four weeks of storage, crystal pH 7.12", "value": "−0.08", "unit": "%"}, {"measurement": "rate of change in HPLC purity", "setting": "[2]; 40° C., four weeks of storage, crystal pH 7.43", "value": "−0.15", "unit": "%"}, {"measurement": "rate of change in HPLC purity", "setting": "[2]; 40° C., four weeks of storage, crystal pH 7.97", "value": "−0.12", "unit": "%"}, {"measurement": "rate of change in HPLC purity", "setting": "[2]; 60° C., four weeks of storage, crystal pH 4.60", "value": "−0.25", "unit": "%"}, {"measurement": "rate of change in HPLC purity", "setting": "[2]; 60° C., four weeks of storage, crystal pH 5.16", "value": "−0.08", "unit": "%"}, {"measurement": "rate of change in HPLC purity", "setting": "[2]; 60° C., four weeks of storage, crystal pH 5.54", "value": "−0.07", "unit": "%"}, {"measurement": "rate of change in HPLC purity", "setting": "[2]; 60° C., four weeks of storage, crystal pH 5.64", "value": "−0.07", "unit": "%"}, {"measurement": "rate of change in HPLC purity", "setting": "[2]; 60° C., four weeks of storage, crystal pH 5.97", "value": "−0.08", "unit": "%"}, {"measurement": "rate of change in HPLC purity", "setting": "[2]; 60° C., four weeks of storage, crystal pH 6.32", "value": "−0.14", "unit": "%"}, {"measurement": "rate of change in HPLC purity", "setting": "[2]; 60° C., four weeks of storage, crystal pH 6.66", "value": "−0.18", "unit": "%"}, {"measurement": "rate of change in HPLC purity", "setting": "[2]; 60° C., four weeks of storage, crystal pH 6.91", "value": "−0.24", "unit": "%"}, {"measurement": "rate of change in HPLC purity", "setting": "[2]; 60° C., four weeks of storage, crystal pH 7.12", "value": "−0.46", "unit": "%"}, {"measurement": "rate of change in HPLC purity", "setting": "[2]; 60° C., four weeks of storage, crystal pH 7.43", "value": "−0.50", "unit": "%"}, {"measurement": "rate of change in HPLC purity", "setting": "[2]; 60° C., four weeks of storage, crystal pH 7.97", "value": "−0.87", "unit": "%"}, {"measurement": "rate of change in HPLC purity", "setting": "[2]; four weeks, one of: (1) 0° C. or more and less than 25° C., (2) 25° C. or more and less than 40° C. and crystal pH 4.5 to 8.0, (3) 40° C. or more and less than 60° C. and crystal pH 5.0 to 6.4", "value": "≤ 0.15", "unit": "%"}, {"measurement": "rate of change in HPLC purity", "setting": "[2]; four weeks, one of: (4) 0° C. or more and less than 25° C., (5) 25° C. or more and less than 40° C. and crystal pH 4.5 to 7.4, (6) 40° C. or more and less than 60° C. and crystal pH 5.2 to 6.2", "value": "≤ 0.10", "unit": "%"}, {"measurement": "rate of change in HPLC purity", "setting": "[2]; four weeks, one of: (7) 0° C. or more and less than 25° C., (8) 25° C. or more and less than 40° C. and crystal pH 4.6 to 6.6", "value": "≤ 0.05", "unit": "%"}, {"measurement": "decrease in HPLC purity", "setting": "[2]; storage temperature 0° C. or more and less than 25° C.", "value": "substantially no decrease"}, {"measurement": "decrease in HPLC purity", "setting": "[2]; storage temperature of 60° C. or more", "value": "may significantly decrease"}]}
